The results in this text go back to patent publication US12492182B2, “Hydroxytriazine compounds and pharmaceutical use thereof” (Japan Tobacco Inc., priority 2015, dated 2025).

Series [1] is described as follows: Measurement of solubility in Britton-Robinson buffer solution (pH 8.5) containing 0.5 W/V % polysorbate 80. Format: physicochemical. Conditions: Britton-Robinson buffer pH 8.5 containing 0.5 W/V % polysorbate 80, 20° C., 18 hr. As to the method:
Experimental Example 5: Measurement of Solubility
(2) Britton-Robinson Buffer Solution (pH 8.5) Containing 0.5 W/V % Polysorbate 80
The test article was weighted in glass microtube, and dispersed in Britton-Robinson buffer solution (pH 8.5, 1.5 mL) containing 0.5 W/V % polysorbate 80 to prepare a suspension. The suspension was shaked at 20° C. for 18 hr, and filtered through a membrane filter (0.45 μm), and the filtrate was used as a sample.
(3) Preparation of Standard Solution and Sample Solution, and Measurement of Solubility
Sample solution was prepared by appropriately diluting sample with a mixture of water/acetonitrile (1:1). Standard solution was prepared by precisely weighting the test article, and then diluting the test article with a mixture of water/acetonitrile (1:1). The standard solution and sample solution were analyzed by liquid chromatography, and the test article content of the sample solution was calculated according to external standard method, based on which the solubility was determined.

A further series concerns the target T1, human mPGES-1 (Homo sapiens, UniProt O14684).
T1 construct: made in house; host or cells: Chinese hamster ovary-derived cells (FreeStyle CHO-S), transient transfection of pcDNA3.1(+)/human mPGES-1; microsome fraction
T1 sequence (O14684 1-152): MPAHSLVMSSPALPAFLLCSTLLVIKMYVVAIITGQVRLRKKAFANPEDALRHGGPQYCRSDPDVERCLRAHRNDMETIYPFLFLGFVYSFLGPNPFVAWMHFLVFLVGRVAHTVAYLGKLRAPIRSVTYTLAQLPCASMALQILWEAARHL
Put plainly: Evaluation of human mPGES-1 enzyme inhibitory activity (HTRF measurement of PGE2). Format: biochemical. Conditions: IC50 value; microsome fraction of CHO-S cells expressing human mPGES-1, PGH2 substrate, PGE2 by HTRF; read-out: humans mPGES-1 enzyme inhibitory activity. The procedure, abridged:
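Enzyme source was a microsome fraction from CHO-S cells transfected with human mPGES-1, diluted to 5 μg/mL protein in reduced GSH (12.5 mmol/L KPB), preincubated with compound for 10 min at room temperature with 2% final DMSO. Reaction started with PGH2 and run 45 seconds at room temperature. PGE2 measured by HTRF.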

A further series deals with A549 cell. Kind of series: Evaluation of PGE2 production inhibitory action using A549 cell (IL-1β stimulated). The following applies: Homo sapiens, A549, A549 cell, recombinant human IL-1β stimulation; read-out: cell PGE2 production inhibitory activity (IC50 value). The format is cell-based, human. The procedure, abridged:
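A549 cells (human lung cancer) in F-12K with 2% FBS were preincubated with test article for 30 min, then stimulated with IL-1β (1 ng/mL final) for 18 hr at 37 °C; 0.5% DMSO final. Supernatant PGE2 was measured by HTRF against a standard curve; inhibition is relative to vehicle and unstimulated blank wells.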

In the case of `CCCCCCOc1ccc(-c2nc(O)nc(-c3cc(CNC(=O)C(C)(C)OC)ccc3Cl)n2)cn1` [Example 81, N-{4-chloro-3-[4-(6-hexyloxypyridin-3-yl)-6-hydroxy-1,3,5-triazin-2-yl]benzyl}-2-methoxy-2-methylpropionamide], the “0.5% polysorbate 80 solubility (%) at pH 8.5” value (shortened to “0.5% polysorbate 80 solubility”) in series [1] worked out at 0.071%. For the same molecule, the IC50 was 2.1 nM at human mPGES-1 and 5 nM in the series on A549 cell.

Take `CC(C)(C)c1cccc(-c2nc(O)nc(-c3cc(CNC(=O)C4(C(F)(F)F)CCCCC4)ccc3Cl)n2)c1` [Example 107, 1-trifluoromethylcyclohexanecarboxylic acid 3-[4-(3-tert-butylphenyl)-6-hydroxy-1,3,5-triazin-2-yl]-4-chlorobenzylamide]: the “0.5% polysorbate 80 solubility” value in series [1] worked out at 0.032%. For the same molecule, the IC50 at human mPGES-1 turned out to be 2.6 nM; in the series with A549 cell it was 2.1 nM.

Turning to `CCC[C@H](C)Oc1ccc(-c2nc(O)nc(-c3cc(CNC(=O)C(CC)(CC)CF)ccc3Cl)n2)cn1` [Example 131], the “0.5% polysorbate 80 solubility” value in series [1] is recorded as 0.109%. In addition, the IC50 was found to be 2.9 nM on human mPGES-1 and 1.9 nM in the series on A549 cell.
